According to ChEMBL document CHEMBL1201862, “PubChem BioAssay data set” (2004):
Activity calls are given as the source filed them.

Columns and labels:
[1] = molecular target: T1, Ubiquitin-conjugating enzyme E2 N (Homo sapiens, UniProt P61088); type: functional;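 note: Dose-response confirmation in a TR-FRET assay detecting UBC13-driven polyubiquitin chain formation, inhibition measured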
T1 sequence (P61088 whole entry): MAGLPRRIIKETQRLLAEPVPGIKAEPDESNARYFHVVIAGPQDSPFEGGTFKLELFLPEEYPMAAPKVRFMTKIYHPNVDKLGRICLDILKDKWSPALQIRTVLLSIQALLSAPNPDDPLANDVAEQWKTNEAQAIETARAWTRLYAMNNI

[2] = molecular target: T2, Sentrin-specific protease 8 (Homo sapiens, UniProt Q96LD8); type: functional;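 note: kinetic enzyme assay of SENP8 cleaving a Nedd8 protein substrate, dose-response confirmation of screening hits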
T2 sequence (Q96LD8 whole entry): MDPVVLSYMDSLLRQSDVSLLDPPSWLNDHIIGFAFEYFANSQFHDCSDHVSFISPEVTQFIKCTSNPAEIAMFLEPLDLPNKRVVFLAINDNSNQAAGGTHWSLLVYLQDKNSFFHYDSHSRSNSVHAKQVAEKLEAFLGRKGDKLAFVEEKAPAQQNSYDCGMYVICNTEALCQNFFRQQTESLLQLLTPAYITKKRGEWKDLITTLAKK

[3] = molecular target: T3, Lysine-specific demethylase 4C (Homo sapiens, UniProt Q9H3R0); assay: GASC-1 (JMJD2C) histone demethylase inhibitors, dose response, biochemical, DELFIA europium, cherry-picked samples (AID 488835); type: functional
T3 sequence (Q9H3R0 whole entry): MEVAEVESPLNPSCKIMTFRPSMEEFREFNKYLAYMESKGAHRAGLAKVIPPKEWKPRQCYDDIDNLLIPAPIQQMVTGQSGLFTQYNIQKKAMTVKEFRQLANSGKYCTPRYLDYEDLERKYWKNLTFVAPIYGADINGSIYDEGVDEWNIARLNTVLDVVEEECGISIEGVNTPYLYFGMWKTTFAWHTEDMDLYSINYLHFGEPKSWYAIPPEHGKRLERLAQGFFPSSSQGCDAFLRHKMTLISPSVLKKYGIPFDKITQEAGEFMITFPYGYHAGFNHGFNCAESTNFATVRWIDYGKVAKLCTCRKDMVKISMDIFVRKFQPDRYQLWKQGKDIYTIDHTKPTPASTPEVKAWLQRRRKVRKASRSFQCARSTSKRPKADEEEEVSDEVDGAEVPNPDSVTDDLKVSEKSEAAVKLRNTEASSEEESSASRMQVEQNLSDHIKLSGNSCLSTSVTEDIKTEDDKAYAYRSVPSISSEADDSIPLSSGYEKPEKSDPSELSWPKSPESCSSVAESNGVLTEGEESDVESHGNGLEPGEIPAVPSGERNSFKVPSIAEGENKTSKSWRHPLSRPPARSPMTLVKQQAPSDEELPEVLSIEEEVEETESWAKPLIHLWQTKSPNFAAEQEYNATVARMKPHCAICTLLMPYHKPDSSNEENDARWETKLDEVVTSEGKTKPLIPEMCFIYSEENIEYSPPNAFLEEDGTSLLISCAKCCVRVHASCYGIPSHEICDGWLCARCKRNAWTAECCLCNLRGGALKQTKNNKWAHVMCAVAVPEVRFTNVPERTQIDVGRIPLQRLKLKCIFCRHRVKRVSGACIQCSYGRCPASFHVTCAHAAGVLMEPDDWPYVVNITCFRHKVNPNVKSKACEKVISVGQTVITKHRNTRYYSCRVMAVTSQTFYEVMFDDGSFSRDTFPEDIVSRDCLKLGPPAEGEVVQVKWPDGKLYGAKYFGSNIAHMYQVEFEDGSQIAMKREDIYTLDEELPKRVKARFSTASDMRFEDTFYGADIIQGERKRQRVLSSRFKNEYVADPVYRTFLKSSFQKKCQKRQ

cells = type: functional, cell-based
[4] = molecular target: Platelet-derived growth factor receptor beta (Homo sapiens, UniProt P09619); type: functional;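 note: value comes from a kinome panel, with PDGFRB tested as one panel member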
[5] = molecular target: Serine/threonine-protein kinase N2 (Homo sapiens, UniProt Q16513); type: functional
Misshapen-like kinase 1 = Misshapen-like kinase 1 (Homo sapiens, UniProt Q8N4C8); type: functional;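 note: kinome panel screen with MINK as the panel member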
[6] = molecular target: T4, Rac GTPase-activating protein 1 (Homo sapiens, UniProt Q9H0H5); assay: MgcRacGAP GTPase-activating activity inhibitors, confirmation, biochemical, ADP Hunter fluorescence, primary and confirmatory (AID 624330); type: functional
T4 sequence (Q9H0H5 whole entry): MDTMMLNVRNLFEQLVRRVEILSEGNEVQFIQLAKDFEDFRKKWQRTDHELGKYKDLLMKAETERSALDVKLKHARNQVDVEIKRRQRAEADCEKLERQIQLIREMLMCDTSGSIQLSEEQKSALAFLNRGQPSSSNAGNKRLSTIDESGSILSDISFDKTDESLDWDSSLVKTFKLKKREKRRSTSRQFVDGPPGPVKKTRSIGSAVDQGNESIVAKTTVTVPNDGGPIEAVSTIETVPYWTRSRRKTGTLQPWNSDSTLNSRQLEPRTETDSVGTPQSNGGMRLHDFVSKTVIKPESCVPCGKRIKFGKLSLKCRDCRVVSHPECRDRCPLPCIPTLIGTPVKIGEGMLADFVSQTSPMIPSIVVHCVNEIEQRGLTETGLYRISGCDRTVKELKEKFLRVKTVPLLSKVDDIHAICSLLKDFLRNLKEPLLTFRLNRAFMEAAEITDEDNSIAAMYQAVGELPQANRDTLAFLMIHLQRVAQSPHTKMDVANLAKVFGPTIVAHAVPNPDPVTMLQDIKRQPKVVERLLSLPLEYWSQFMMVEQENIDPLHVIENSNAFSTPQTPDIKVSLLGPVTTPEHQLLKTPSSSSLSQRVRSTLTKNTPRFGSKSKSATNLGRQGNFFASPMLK

[7] = ZM109 Env clade C HIV-1 fusion inhibitors, dose response, HeLa effector, CEM target cells, luciferase, cherry-pick (AID 652058); type: functional, cell-based
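Throughout, for EC50: proteasome chymotrypsin-like activity measured in U2OS cells; potency is for inhibition of proteasome activity.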

Sequence of Platelet-derived growth factor receptor beta (P09619 whole entry): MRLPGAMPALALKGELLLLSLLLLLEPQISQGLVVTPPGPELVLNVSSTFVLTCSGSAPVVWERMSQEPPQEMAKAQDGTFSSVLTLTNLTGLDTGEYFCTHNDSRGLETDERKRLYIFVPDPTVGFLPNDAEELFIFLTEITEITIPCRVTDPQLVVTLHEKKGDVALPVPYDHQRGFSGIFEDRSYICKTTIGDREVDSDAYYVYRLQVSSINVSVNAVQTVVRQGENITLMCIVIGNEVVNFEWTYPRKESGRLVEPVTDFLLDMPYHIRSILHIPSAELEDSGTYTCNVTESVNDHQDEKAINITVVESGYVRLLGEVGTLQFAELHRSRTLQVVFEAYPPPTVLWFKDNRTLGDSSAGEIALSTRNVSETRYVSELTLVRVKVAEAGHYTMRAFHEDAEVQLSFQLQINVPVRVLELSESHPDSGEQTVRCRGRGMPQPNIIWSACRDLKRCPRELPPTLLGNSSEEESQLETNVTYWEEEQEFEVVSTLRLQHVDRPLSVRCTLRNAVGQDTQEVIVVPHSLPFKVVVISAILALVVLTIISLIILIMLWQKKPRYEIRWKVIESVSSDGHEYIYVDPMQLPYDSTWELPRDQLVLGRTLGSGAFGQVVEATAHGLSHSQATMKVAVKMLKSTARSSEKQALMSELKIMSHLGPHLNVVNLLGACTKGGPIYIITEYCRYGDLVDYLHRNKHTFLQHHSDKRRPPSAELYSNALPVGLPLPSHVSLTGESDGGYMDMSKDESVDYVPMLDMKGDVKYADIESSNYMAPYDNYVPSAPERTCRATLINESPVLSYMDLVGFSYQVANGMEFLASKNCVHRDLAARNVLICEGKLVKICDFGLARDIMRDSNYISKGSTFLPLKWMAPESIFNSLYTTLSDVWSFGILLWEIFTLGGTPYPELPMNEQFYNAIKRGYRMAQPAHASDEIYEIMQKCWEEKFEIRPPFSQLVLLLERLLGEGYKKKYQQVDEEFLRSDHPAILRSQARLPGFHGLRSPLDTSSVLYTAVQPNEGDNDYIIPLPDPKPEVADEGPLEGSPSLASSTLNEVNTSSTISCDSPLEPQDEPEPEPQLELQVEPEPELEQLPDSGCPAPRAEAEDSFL
Sequence of Serine/threonine-protein kinase N2 (Q16513 whole entry): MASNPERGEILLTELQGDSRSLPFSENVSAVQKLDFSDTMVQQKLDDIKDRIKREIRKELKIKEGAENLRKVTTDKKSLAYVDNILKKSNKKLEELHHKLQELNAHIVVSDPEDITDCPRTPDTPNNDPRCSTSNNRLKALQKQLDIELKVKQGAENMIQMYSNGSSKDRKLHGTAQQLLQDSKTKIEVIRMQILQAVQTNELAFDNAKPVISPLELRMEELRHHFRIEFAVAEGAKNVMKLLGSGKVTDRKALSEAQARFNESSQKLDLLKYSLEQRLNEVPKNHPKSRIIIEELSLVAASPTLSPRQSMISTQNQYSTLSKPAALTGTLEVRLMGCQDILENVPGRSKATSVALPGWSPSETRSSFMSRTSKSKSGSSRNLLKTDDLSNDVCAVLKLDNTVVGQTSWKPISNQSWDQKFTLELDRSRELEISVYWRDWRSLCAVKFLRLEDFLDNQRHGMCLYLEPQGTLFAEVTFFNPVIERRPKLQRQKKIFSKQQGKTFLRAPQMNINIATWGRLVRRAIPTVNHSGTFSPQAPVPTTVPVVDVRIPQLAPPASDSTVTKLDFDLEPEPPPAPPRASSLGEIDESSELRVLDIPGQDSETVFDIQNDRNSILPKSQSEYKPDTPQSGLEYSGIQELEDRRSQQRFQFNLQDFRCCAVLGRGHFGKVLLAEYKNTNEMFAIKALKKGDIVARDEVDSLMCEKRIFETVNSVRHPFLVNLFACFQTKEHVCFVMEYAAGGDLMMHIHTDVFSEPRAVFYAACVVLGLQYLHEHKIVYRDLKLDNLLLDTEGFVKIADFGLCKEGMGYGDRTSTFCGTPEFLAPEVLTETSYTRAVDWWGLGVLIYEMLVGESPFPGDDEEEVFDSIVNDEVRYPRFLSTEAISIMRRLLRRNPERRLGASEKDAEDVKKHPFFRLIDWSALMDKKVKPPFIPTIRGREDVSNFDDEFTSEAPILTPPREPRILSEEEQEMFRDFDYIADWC
Sequence of Misshapen-like kinase 1 (Q8N4C8 whole entry): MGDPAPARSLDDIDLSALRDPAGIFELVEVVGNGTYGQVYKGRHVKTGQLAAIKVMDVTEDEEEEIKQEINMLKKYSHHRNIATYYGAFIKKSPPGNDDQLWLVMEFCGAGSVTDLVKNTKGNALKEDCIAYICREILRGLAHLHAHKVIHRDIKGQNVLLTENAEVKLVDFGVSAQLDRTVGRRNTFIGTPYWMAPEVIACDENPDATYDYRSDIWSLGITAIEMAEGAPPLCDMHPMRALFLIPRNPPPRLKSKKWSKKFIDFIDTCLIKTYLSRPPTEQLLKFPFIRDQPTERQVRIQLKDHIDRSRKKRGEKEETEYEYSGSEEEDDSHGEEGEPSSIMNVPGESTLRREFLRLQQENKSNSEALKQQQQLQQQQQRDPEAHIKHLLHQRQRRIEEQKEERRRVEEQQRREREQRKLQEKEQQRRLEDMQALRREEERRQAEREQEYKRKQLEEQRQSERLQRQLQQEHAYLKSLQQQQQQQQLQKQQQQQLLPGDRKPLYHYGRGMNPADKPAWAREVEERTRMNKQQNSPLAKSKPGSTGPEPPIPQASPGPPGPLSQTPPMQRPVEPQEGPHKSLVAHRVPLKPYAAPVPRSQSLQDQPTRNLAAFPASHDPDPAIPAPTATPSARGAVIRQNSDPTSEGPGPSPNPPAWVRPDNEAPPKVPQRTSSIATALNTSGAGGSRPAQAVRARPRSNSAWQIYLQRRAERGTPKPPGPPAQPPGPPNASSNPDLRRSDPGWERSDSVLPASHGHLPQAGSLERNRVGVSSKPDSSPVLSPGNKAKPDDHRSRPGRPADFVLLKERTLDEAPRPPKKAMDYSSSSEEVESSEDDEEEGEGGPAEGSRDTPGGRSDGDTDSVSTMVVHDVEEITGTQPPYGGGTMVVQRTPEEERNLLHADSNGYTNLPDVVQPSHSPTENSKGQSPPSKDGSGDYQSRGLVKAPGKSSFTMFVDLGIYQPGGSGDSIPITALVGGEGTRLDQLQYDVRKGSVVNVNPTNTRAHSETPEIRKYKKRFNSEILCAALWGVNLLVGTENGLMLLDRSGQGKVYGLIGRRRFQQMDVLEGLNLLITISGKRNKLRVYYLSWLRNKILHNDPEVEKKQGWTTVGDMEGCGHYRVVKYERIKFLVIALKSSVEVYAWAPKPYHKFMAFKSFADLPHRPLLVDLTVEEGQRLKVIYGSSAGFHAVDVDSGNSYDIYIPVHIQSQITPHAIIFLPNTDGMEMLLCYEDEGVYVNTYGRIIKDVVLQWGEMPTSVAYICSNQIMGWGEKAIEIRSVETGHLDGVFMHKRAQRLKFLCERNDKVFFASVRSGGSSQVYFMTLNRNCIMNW

With `CNC[C@H](Cc1ccccc1)NC[C@@H](Cc1cccc2ccccc12)NCCc1ccc(C)cc1` as the molecule, how does the IC50 [1] read?
Its IC50 is 14.9 µM (active).

For `Nc1nnc2c(n1)CCCC2`, which IC50 [2] is on record?
The IC50 was 2.98 µM (active).

Which AC50 [3] does the source give for `O=C(Cc1ccccc1Cl)NC1(O)C(=O)c2ccccc2C1=O` here?
The AC50 was 7.1 µM (active).

With `O=C(N/N=C/c1c(O)ccc2ccccc12)c1[nH]ncc1Br` as the molecule, how does the EC50 (cells) read?
The EC50 was 10.7 µM (active).

For `Nc1c(-c2ccc(NC(=O)Nc3cccc(C(F)(F)F)c3)cc2)cnc2c(-c3ccc4c(c3)OCO4)cnn12`, which Ki [4] is on record?
Its Ki is 0.00794 µM (active).

Which Ki [5] does the source give for `O=C(Nc1cc(-c2c[nH]c3ncccc23)cc(Cl)n1)c1ccccc1` here?
The Ki was > 5.01 µM (inactive).

What about the Ki (Misshapen-like kinase 1) of the same molecule?
Its Ki is > 2.51 µM (inactive).

Which IC50 [6] does the source give for `CCN1C(=Cc2sc3ccccc3[n+]2C)C=Cc2cccc(C)c21` here?
Its IC50 is 55.9 µM (active).

And the AC50 [7]?
The AC50 was 7.58 µM (active).
